# Reference: US11466020B2, “Compounds and compositions for inhibition and elimination of Zika infection and uses for same” (Cornell University, priority 2017, dated 2022)
# Entries after “also recorded” stand apart in the source; their conditions may differ. Counter-ions that a name gives are not always drawn.
# What was measured:
# ZIKV (PRVABC59 strain) = assay: ZIKV PRVABC59 infection of hNPCs (immunocytochemistry); format: cell-based, Zika virus; conditions: MOI=0.125, 72 h
# Protocol: (A) Scheme of high content chemical screen. (B) Chemical structure of hit compounds. (C) Inhibitory curve and IC50 of HH or AQ on hNPCs (n=6). (D-H) Immunocytochemistry analysis (D), the quantification of the infection rate (E), the quantification of proliferation rate (F), the quantification of cell apoptosis rate (G) and the normalized cell viability (H) of hNPCs at 72 h after ZIKV (MR 766 strain) infection with or without drug treatment. Scale bars, 100 μm. The ZIKV infection rate is defined as the percentage of ZIKV E^+ cells. The proliferation rate is defined as the percentages of Ki67^+ cells. The cell apoptosis rate was defined as the percentage of cleaved-Caspase 3/CAS3^+ cells. The normalized cell viability was calculated by dividing the total cell number of each condition by the total cell number under mock infection conditions. (n=6). […] (K) Quantification of ZIKV infectious particles produced by ZIKV-infected hNPCs with or without compound treatment by the Vero cell reinfection assay. […] (M and N) Immunocytochemistry analysis (M) and quantification of the infection rate (N) of hNPCs at 72 h after ZIKV (PRVABC59 strain) infection with or without drug treatment (n=6). Scale bars, 100 μm. p values were calculated by one-way repeated measures ANOVA with a Bonferroni test for multiple comparisons. *p<0.05, **p<0.01 and ***p<0.001. […]
# ZIKV (MR766 strain) = assay: ZIKV infection of human forebrain organoids (MR766); format: cell-based, Zika virus
# Protocol: (A) Experimental design for evaluating the therapeutic efficacy and safety of HH using forebrain organoids. D20 or D40 Forebrain organoids were exposed to ZIKV (5×10^5 PFU/ml) or mock-treated for 24 h. After removal of ZIKV-containing medium, fresh virus-free medium plus compounds were added. Organoids were analyzed at day 4 (D20+4) or day 18 (D20+18) after initial ZIKV infection. (B and C) HH eliminates ZIKV infection in short-term cultures. Immunocytochemistry analysis (B) and the quantification of infection rate (C) of mock, DMSO or 25 μM HH treated ZIKV-infected D20 organoids (n=3). Scale bars, 100 μm. D20+4 organoids mainly consist of SOX2^+ progenitors and are highly infiltrated by ZIKV. […] (D) qRT-PCR analysis of total ZIKV vRNA in the supernatant of DMSO or 25 μM HH treated ZIKV-infected D20 and D40 organoids (n=3). (E) HH rescues ZIKV-related proliferation and apoptosis defects in D20+4 organoids. The number of proliferating cells (Ki67^+) is decreased and the number of apoptotic cells (CAS^+) is increased in ZIKV-infected organoids compared to mock and 25 μM HH treated organoids (n=3). Scale bars, 100 μm. […] Scale bars, 50 μm. […] Quantifications show average organoid perimeter of D20+18 organoids (H). Values represent mean±SEM (n=3). Scale bars, 1 mm. (I) HH rescues ZIKV-induced structural defects in forebrain organoids. Mock treated organoids contain clearly defined progenitor (SOX2) and neuronal (TUJ1) zones. Neurons migrate out of progenitor zones and settle at the edge of the organoid, while progenitor zones occupy more interior regions of the organoid. In contrast, D20+18 ZIVK infected organoids lack clearly defined progenitor and neuronal zones, which appear to intermix. Both neuron and progenitor zones appear to settle at the edge of the organoid. HH rescues the well-delineated structure of forebrain organoids (n=3). Scale bars, 100 μm. p values were calculated by unpaired two-tailed Student's t-test. *p<0.05, **p<0.01 and ***p<0.001.
# D20 forebrain organoids were inoculated with ZIKV (MR766 strain) for 24 h, followed by treatment with 15 μM AQ or 25 μM HH for 3 days (D20+4, short-term) or 17 days (D20+18, long-term). Organoids were analyzed for ZIKV infection, cell proliferation, and apoptosis (FIG. 3A).
# Generation and culture of human forebrain organoids. To induce forebrain organoid differentiation, H9 hESC line (WA-09, WiCell) hPSCs were dissociated to single cells using EDTA, and 9000 cells were reaggregated using low-adhesion V-bottom 96 well plates (Wako) in Essential8 Medium (Fisher Scientific) with 10 μM Y-27632 (Tocris Biosciences). After 24 h (day 0), medium was changed to Essential6 (Fischer Scientific) supplemented with 10 μM SB431542 (Tocris Biosciences), 500 nM LDN193189 (Stem Cell Technologies), and 2 μM XAV939 (Tocris Biosciences) until day 4. […]
Compound,ZIKV (PRVABC59) infection of hNPCs (ZIKV (PRVABC59 strain); 15 μM AQ),"ZIKV infection in D20 organoids (ZIKV (MR766 strain); 15 μM AQ, D20+4, dihydrochloride dihydrate)",ZIKV (PRVABC59) infection of hNPCs (ZIKV (PRVABC59 strain); 25 μM HH),total ZIKV vRNA level in supernatant from D20+4 organoids (ZIKV (MR766 strain); 25 μM HH),"ZIKV infection rate in D20+4 forebrain organoids (ZIKV (MR766 strain); 25 μM HH, 3 day treatment, hydrobromide)","ZIKV infection in D20+18 organoids (long-term) (ZIKV (MR766 strain); HH treated, 18 days after infection, hydrobromide)"
"CCN(CC)Cc1cc(Nc2ccnc3cc(Cl)ccc23)ccc1O [AQ, amodiaquine dihydrochloride dihydrate]",effectively inhibited ZIKV infection,suppresses ZIKV infection; also recorded: reduces ZIKV infection,–,–,–,–
"CN1CCC2=C[C@H](O)[C@H]3OC(=O)c4cc5c(cc4[C@H]3[C@@H]21)OCO5 [HH, hippeastrine hydrobromide]",–,–,effectively inhibited ZIKV infection,suppresses total ZIKV vRNA level,undetectable levels; also recorded: below the detection limit,devoid of any detectable ZIKV; also recorded: suppressed any detectable ZIKV infection
